Measurements: PMC11083148, “Structure–Activity Relationship Studies on Highly Functionalized Pyrazole Hydrazones and Amides as Antiproliferative and Antioxidant Agents” (International Journal of Molecular Sciences, 2024)

Experiments:
Type in all cases: cell-based
[1] = system: SKOV3; assay: MTT assay, antiproliferative activity; conditions: Homo sapiens; for Mean growth percentage at 10 µM: SK-OV-3, 10 µM, 48h
[2] = system: washed platelets; assay: Platelet aggregation (thrombin-induced, Born's method); conditions: Homo sapiens, 0.1 U/mL thrombin, mean ± SD, read-out: IC50 Aggregation inhibition
How it was run: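 Washed human platelets (3.0 × 10^8/mL) were preincubated with compound at 37 °C for 3 min. Aggregation was then triggered with 0.1 U/mL thrombin and measured by Born's turbidimetric method, with IC50 values calculated from the response.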

[3] = system: CCRF-CEM; assay: NCI screening, Leukemia; conditions: 10 µM
Procedure: (§1) In addition, 11a and 17 (representative compounds of the acylhydrazone and amide series) were selected by the National Cancer Institute (NCI, Germantown, MD, USA) and tested at a fixed concentration of 10 µM against a panel of fifty-nine different cancer cell lines, including highly metastatic tumors (Table 2).

[4] = system: MOLT-4; assay: NCI screening, Leukemia; conditions: MOLT-4, Leukemia; 10 µM
Procedure: as §1

[5] = system: RPMI-8226; assay: NCI screening, Leukemia; conditions: RPMI-8226, Leukemia; 10 µM
Procedure: as §1

[6] = system: SF-268; assay: NCI screening, CNS Cancer; conditions: SF-268, CNS Cancer; 10 µM
Procedure: as §1

[7] = system: SF-295; assay: NCI screening, CNS Cancer; conditions: SF-295, CNS Cancer; 10 µM
Procedure: as §1

[8] = system: SF-539; assay: NCI screening, CNS Cancer; conditions: SF-539, CNS Cancer; 10 µM
Procedure: as §1

[9] = system: SNB-19; assay: NCI screening, CNS Cancer; conditions: SNB-19, CNS Cancer; 10 µM
Procedure: as §1

[10] = system: SNB-75; assay: NCI screening, CNS Cancer; conditions: SNB-75, CNS Cancer; 10 µM
Procedure: as §1

[11] = system: U251; assay: NCI screening, CNS Cancer; conditions: 10 µM
Procedure: as §1

[12] = system: 786-0; assay: NCI screening, Renal Cancer; conditions: 786-0, Renal Cancer; 10 µM
Procedure: as §1

[13] = system: A498; assay: NCI screening, Renal Cancer; conditions: 10 µM
Procedure: as §1

[14] = system: ACHN; assay: NCI screening, Renal Cancer; conditions: 10 µM
Procedure: as §1

[15] = system: UO-31; assay: NCI screening, Renal Cancer; conditions: UO-31, Renal Cancer; 10 µM
Procedure: as §1

[16] = system: BT-549; assay: NCI screening, Breast Cancer; conditions: BT-549, Breast Cancer; 10 µM
Procedure: as §1

[17] = system: MDA-MB-231/ATCC; assay: NCI screening, Breast Cancer; conditions: 10 µM
Procedure: as §1

[18] = system: T-47D; assay: NCI screening, Breast Cancer; conditions: 10 µM
Procedure: as §1

SMILES	Mean growth percentage at 10 µM [1]	IC50 ([1]; SK-OV-3, MTT)	IC50 [2]	Growth Percentage (%) [3]	Growth Percentage (%) [4]	Growth Percentage (%) [5]	Growth Percentage (%) [6]	Growth Percentage (%) [7]	Growth Percentage (%) [8]	Growth Percentage (%) [9]	Growth Percentage (%) [10]	Growth Percentage (%) [11]	Growth Percentage (%) [12]	Growth Percentage (%) [13]	Growth Percentage (%) [14]	Growth Percentage (%) [15]	Growth Percentage (%) [16]	Growth Percentage (%) [17]	Growth Percentage (%) [18]
COc1ccc(/C=N/NC(=O)c2c(N)nn(C)c2Nc2ccccc2)cc1 [11a, (E)-3-amino-N′-(4-methoxybenzylidene)-1-methyl-5-(phenylamino)-1H-pyrazole-4-carbohydrazide]	43.6%	6.88 ± 0.23 µM	183 ± 13 µM	38.45%	49.41%	61.65%	58.65%	98.52%	40.20%	36.78%	35.14%	33.33%	57.97%	33.08%	49.99%	51.18%	14.04%	65.06%	42.38%
CCOC(=O)c1c(NC(=O)C2CC2)nn(C)c1Nc1ccccc1 [compound 17, Ethyl 3-(cyclopropanecarboxamido)-1-methyl-5-(phenylamino)-1H-pyrazole-4-carboxylate]	86.9%	–	460 µM	97.75%	101.92%	99.62%	101.17%	102.51%	97.42%	98.39%	94.70%	100.80%	101.26%	92.87%	104.77%	87.45%	118.46%	100.37%	93.07%
